Several values for one entry are separate records, joined by “and”; a condition that tells them apart may be missing. Equal values may be shown once. Activity calls are given as the source filed them.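 Rule for the calls: active = compounds cutting yeast growth whose half-maximal concentration is at most twice their top valid dose; inconclusive = flat growth loss of 30 to 70 percent, or poor fit; inactive = the rest.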
What was measured:
[1] = antifungal activity against respiring C. glabrata – glycerol medium, OD600, powder samples, set 2, dose response (AID 623903); details: Candida glabrata growth in glycerol, OD600, 48 h; at 6 µM (top of the series)
[2] = test system: Candida glabrata growth in glycerol, OD600, 48 h; test: as above

| SMILES | growth change, negative = inhibition [1] | AC50 [2] |
| --- | --- | --- |
| Cc1ccc(N2C(=S)N(S(C)(=O)=O)C(=O)C23CCCCC3)cc1 | 1.2% (inactive) |  |
| CCOC(=O)N1C(=O)C2(CCCCC2)N(c2ccc(C)cc2)C1=S |  | 56.4 nM and 45.2 nM |
| CCOC(=O)N1C(=O)C2(CCCCC2)N(c2ccc(C(C)C)cc2)C1=S |  | 829 nM |
| Cc1ccc(N2CC(=O)NC2=S)cc1 | 3.32% (inactive) |  |
| O=C1NC(=S)N(Cc2ccccc2)C12CCCCC2 | -0.552% (inactive) |  |
| CCOC(=O)N1C(=O)C2(CCCCC2)N(c2cccc(C)c2)C1=S |  | 86.6 nM |
| Cc1ccc(N2C(=S)N(C(=O)OC(C)C)C(=O)C23CCCCC3)cc1 |  | 638 nM |
| O=C1NC(=S)N(c2ccccc2)C12CCCCC2 | 21.1% (inactive) |  |
| Cc1ccc(N2C(=S)N(C(=O)OCc3ccccc3)C(=O)C23CCCCC3)cc1 |  | 5540 nM |
| CCOC(=O)N1C(=O)C2(CCCCC2)N(C(C)C)C1=S |  | 2750 nM |
| Cc1ccc(N2C(=S)NC(=O)C23CCC3)cc1 | 3.27% (inactive) |  |
| CCOC(=O)N1C(=S)N(c2ccc(C)cc2)C2(CCCCC2)C1=NCc1ccccc1 |  | 3750 nM |
| CCOC(=O)N1C(=O)C2(CCOCC2)N(c2ccc(C)cc2)C1=S |  | 1480 nM |
| Cc1ccc(N2C(=S)NC(=O)C2(C)C)cc1 | -2.42% (inactive) |  |
| CCOC(=O)N1C(=O)C2(CCCCC2)N(c2ccccc2C)C1=S |  | 541 nM |
| CCOC(=O)N1C(=S)NC(=O)C12CCCCC2 | 11.1% (inactive) |  |
| CCCCN1C(=O)C2(CCCCC2)N(c2ccc(C)cc2)C1=S |  | > 12000 nM (inactive) |
| CCOC(=O)N1C(=O)C(C)(C)N(c2ccc(C)cc2)C1=S | -13.4% (inactive) |  |
| O=C1NC(=S)NC12CCCCC2 | 10.1% (inactive) |  |
| CCOC(=O)N1C(=O)C2(CCCC2)N(c2ccc(C)cc2)C1=S |  | 315 nM |
| Cc1ccc(N2C(=S)N(C(=O)Oc3ccccc3)C(=O)C23CCCCC3)cc1 | -4.17% (inactive) |  |
| CCOC(=O)N1C(=O)C2(CCC2)N(c2ccc(C)cc2)C1=S |  | 2510 nM |
| CC(C)N1C(=S)NC(=O)C12CCCCC2 | 5.61% (inactive) |  |
| Cc1ccc(N2C(=S)NC(=O)C23CCCC3)cc1 | -31.4% (inactive) |  |
| CCOC(=O)N1C(=O)C2(CCCCC2)N(c2ccc(F)cc2)C1=S |  | < 23.5 nM |
| COC(=O)N1C(=O)C2(CCCCC2)N(c2ccc(C)cc2)C1=S |  | 136 nM |
| CCOC(=O)N1C(=O)C2(CCCCC2)N(c2ccc(-c3ccccc3)cc2)C1=S |  | 242 nM |

| SMILES | growth change, negative = inhibition [1] | AC50 [2] |
| --- | --- | --- |
| CC1/C=C/C=C\C=C\C=C\C=C\C=C\C=C\C(O[C@H]2OC(C)C(O)C(N)C2O)CC2OC(O)(CC(O)CC(O)C(O)CCC(O)CC(O)CC(=O)OC(C)C(C)C1O)CC(O)C2C(=O)O (stereo partly drawn) |  | 205 nM |
| CCCC(=O)N1C(=O)C2(CCCCC2)N(c2ccc(C)cc2)C1=S |  | 102 nM |
| CCOC(=O)N1C(=O)C2(CCCCC2)N(Cc2ccccc2)C1=S |  | < 23.5 nM |
| O=C1NC(=S)N(c2ccc(F)cc2)C12CCCCC2 | -17.4% (inactive) |  |
| CCOC(=O)N1C(=O)C2(CCCCC2)N(c2ccc(C(F)(F)F)cc2)C1=S |  | 44.3 nM |
| CCCc1ccc(N2C(=S)N(C(=O)OCC)C(=O)C23CCCCC3)cc1 |  | 629 nM |
| CCCCN1C(=O)N(c2ccc(C)cc2)C2(CCCCC2)C1=O | -2.19% (inactive) |  |
| CCOC(=O)N1C(=O)C2(CCCCC2)N(c2ccc(CC)cc2)C1=S |  | 133 nM |
| Cc1ccc(N2CC(=O)NC2=O)cc1 | 28.9% (inactive) |  |
| Cc1ccc(N2C(=S)N(C)C(=O)C23CCCCC3)cc1 | -20.3% (inactive) |  |
| CCOC(=O)N1C(=O)C2(CCCCC2)N(c2ccc(C(C)(C)C)cc2)C1=S |  | 1980 nM |
| CCOC(=O)N1C(=O)C2(CCCCC2)N(c2ccc(C#N)cc2)C1=S |  | 67.2 nM |
| CCCOC(=O)N1C(=O)C2(CCCCC2)N(c2ccc(C)cc2)C1=S |  | 95.3 nM |
| CCOC(=O)N1C(=O)C2(CCCCC2)N(c2ccc(OC)cc2)C1=S |  | 255 nM |
| Cc1ccc(N2C(=O)C(=O)NC2=S)cc1 | 19.6% (inactive) |  |
| CCOC(=O)N1C(=O)C2(CCCCC2)N(c2ccc(Cl)cc2)C1=S |  | < 23.5 nM |
| CCOC(=O)N1C(=S)N(c2ccc(C)cc2)C(=O)C12CCCCC2 | 14.3% (inactive) |  |
| Cc1ccc(N2C(=O)NC(=O)C23CCCCC3)cc1 | 44.5% (inactive) |  |
| Cc1ccc(N2C(=S)NC(=O)C23CCCCC3)cc1 | -3.05% (inactive) |  |
| CCCCN1C(=O)N(c2ccc(C)cc2)C2(CCCCC2)C1=S |  | > 12000 nM (inactive) |
| Cc1ccc(N2C(=O)N(C)C(=O)C23CCCCC3)cc1 | 24.2% (inactive) |  |
| Cc1ccc(N2C(=O)C3(CCCCC3)NC2=S)cc1 | 5.63% (inactive) |  |
| CCOC(=O)N1C(=O)N(c2ccc(C)cc2)C2(CCCCC2)C1=O | -38.8% (inactive) |  |
| CCOC(=O)N1C(=O)C2(CCCCC2)NC1=S | -2.7% (inactive) |  |
| Cc1ccc(N2C(=S)NC(=O)C23CCOCC3)cc1 |  | > 12000 nM (inactive) |
| CCOC(=O)N1C(=O)C2(CCCCC2)N(c2ccccc2)C1=S |  | 28.9 nM |
